This is an account of results in patent publication US20180312493A1, “Antibiotic Compounds, Pharmaceutical Formulations Thereof And Methods And Uses Therefor” (Simon Fraser University, priority 2015, published 2018).

In general, MIC refers to the smallest concentration in the dilution series that meets the test's criterion for growth inhibition.

Structures are written as SMILES. In brackets after ≈: the same amount, converted by molar mass. Where only a bound is given, the exact number is not on record here.

One assay has as its system S. aureus (ATCC29213). Briefly: In vitro susceptibility, broth microdilution (MIC). The class given is cell-based. Conditions: Staphylococcus aureus; S. aureus ATCC29213; 18-24 h, 37 C; read-out: Antimicrobial activity (MIC) S. aureus ATCC29213. The method, boiled down:
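CLSI 2-fold serial broth microdilution; K. pneumoniae C238 grown in L-broth, S. aureus ATCC 29213 in Mueller Hinton broth, plates incubated 18–24 h at 37 °C. MIC taken as lowest concentration giving complete growth inhibition by OD600 versus compound-free wells, background-subtracted.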

In assay [1] the test system is S. typhimurium (ATCC BAA-185). Description: In vitro susceptibility, broth microdilution (MIC). The class given is cell-based. Conditions: Salmonella enterica, read-out: Antimicrobial activity (MIC) S. typhimurium. In short, it runs like this:
(§1)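 MIC determined by CLSI 2-fold broth microdilution in cation-adjusted Mueller–Hinton broth at ~2.5×10^5 CFU/ml, final compound 0.031–64 μg/ml, 18–24 h at 37 °C. MIC is the lowest concentration giving complete growth inhibition by background-corrected OD600 versus compound-free wells; duplicate or triplicate wells, replicated at least twice.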
(In general: In broth dilution the organism is exposed to a series of concentrations in liquid medium.)

Assay [2] deals with A. baumannii (ATCC 19606). Description: In vitro susceptibility, broth microdilution (MIC). The class given is cell-based. The note with it: Acinetobacter baumannii, ATCC19606; A. baumannii ATCC 19606 (values without asterisk); read-out: Antimicrobial activity (MIC) A. baumannii. In short, it runs like this: as §1
Another assay relates to P. aeruginosa (PA01). Description: In vitro susceptibility, broth microdilution (MIC). The class given is cell-based. The note with it: Pseudomonas aeruginosa, read-out: Antimicrobial activity (MIC) P. aeruginosa. The method, boiled down:
as §1

Another assay relates to MRSA (ATCC BAA-1762). Description: In vitro susceptibility, broth microdilution (MIC). The class given is cell-based, methicillin resistant S. aureus. Conditions: Staphylococcus aureus; MRSA ATCC BAA-1762; read-out: Antimicrobial activity (MIC) MRSA ATCC BAA1762. The method, boiled down:
as §1

In the next assay the test system is S. aureus ATCC 29123. Briefly: Thigh infection model in neutropenic mice. The class given is in vivo, female CD-1 mice. Conditions: thigh muscle, 10 mg/kg IV BID (2 and 8 h post-infection), 24 hr post infection. As to the method:
The antimicrobial activity of compounds 23 and 60 against S. aureus ATCC 29123 was tested in vivo using a thigh infection model in neutropenic mice. Briefly, animals (female CD-1 mice, 5 weeks of age) were made neutropenic prior to S. aureus thigh infection by pre-treating with cyclophosphamide (150 mg/kg, IP, −4 and −1 days pre-inoculation). On the inoculation day (day 0), mice were infected with S. aureus at time zero (t=0). Animals were individually monitored for adverse reactions for 30 min post-infection.
Compounds 23 and 60 were prepared for IV administration and for oral administration. Vancomycin was administered as a solution in PBS. The test compounds were administered at 2 and 8 hours post-infection and animals were individually monitored for adverse reactions for 30 min after each injection. All animals were then monitored hourly from 20 hours post infection to the endpoint (t=24 hr post infection). At the indicated timepoint, animals were sacrificed and the injected thigh collected.
Quantitative enumeration of bacterial load was determined by plating serial dilutions from homogenized thigh muscles. The plates were incubated and colony counts were determined. CFU per mL calculated was calculated.

For `NCCOc1cc2[nH]c(-c3cc4ccc(Br)cc4[nH]3)cc2cc1Cl` [Compound 201, 2-((6′-Bromo-5-chloro-1H,1′H-[2,2′-biindol]-6-yl)oxy)ethan-1-amine], the MIC with S. aureus (ATCC29213) stood at 4 µg/mL (≈ 9.88 µM); in assay [1], 16 µg/mL (≈ 39.5 µM); in assay [2], 16 µg/mL (≈ 39.5 µM); in the assay on P. aeruginosa (PA01), 16 µg/mL (≈ 39.5 µM); with MRSA (ATCC BAA-1762), 4 µg/mL (≈ 9.88 µM).
With `NCCNC(=O)c1c(-c2cc3cc(Cl)ccc3[nH]2)[nH]c2cc(Br)ccc12` [Compound 206, N-(2-Aminoethyl)-6-bromo-5′-chloro-1H,1′H-[2,2′-biindole]-3-carboxamide], the MIC was found to be 8 µg/mL (≈ 18.5 µM) with S. aureus (ATCC29213); 64 µg/mL (≈ 148 µM) in assay [1]; 16 µg/mL (≈ 37.1 µM) in assay [2]; 32 µg/mL (≈ 74.1 µM) in the assay on P. aeruginosa (PA01); 8 µg/mL (≈ 18.5 µM) with MRSA (ATCC BAA-1762).
On to `C[N+](C)(C)CCON=C(c1c(-c2cc3cc(Cl)ccc3[nH]2)[nH]c2cc(Br)ccc12)C(F)(F)F` (racemic) [Compound 221, 2-(((1-(6-Bromo-5′-chloro-1H,1′H-[2,2′-biindol]-3-yl)-2,2,2-trifluoroethylidene)amino)oxy)-N,N,N-trimethylethan-1-aminium Iodide], for which the MIC in the assay with S. aureus (ATCC29213) is 1 µg/mL; in assay [1] it was 64 µg/mL; in assay [2], 32 µg/mL; with P. aeruginosa (PA01), 32 µg/mL; in the assay on MRSA (ATCC BAA-1762), 2 µg/mL.
For the compound `CN(C)CCOC(=O)c1c(/C=C/c2ccc(Cl)cc2)[nH]c2cc(Br)ccc12` [Compound 60, (E)-2-(Dimethylamino)ethyl 6-bromo-2-(4-chlorostyryl)-1H-indole-3-carboxylate], the minimum inhibitory concentration (MIC) with S. aureus (ATCC29213) is 4 µg/mL (≈ 8.93 µM); in assay [2], more than 64 µg/mL. Moreover, in the assay on S. aureus ATCC 29123, the “reduction in CFU” value turned out to be 3 log.
